GI50 and TGI data for eleven compounds are collected here from PubChem BioAssay (NCI).

Among the test systems are SN12C renal; OVCAR-4 ovarian; SF-295 CNS; UACC-257 melanoma; SF-268 CNS; RPMI-8226 leukemia; U251 CNS; NCI/ADR-RES ovarian; SF-539 CNS; HOP-92 NSCLC.
What all share (assay): inhibition of tumour cell growth, NCI panel, 48 h

Each structure is given as a SMILES string. Several values for one entry are separate records, joined by “and”; a condition that tells them apart may be missing. Identical values can stand only once.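 Results reflect a 48-hour exposure of cells in 96-well plates to compound at five concentrations. The concentration for 50% growth inhibition is given as GI50. At the TGI there is no net growth.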 Some results are limits rather than exact numbers.

On to `COc1ccc(C2SC(C)C(=O)N2NC(=O)C(O)c2ccccc2)cc1OC` (stereo unspecified), for which the GI50 in the assay with SN12C renal, in the assay on OVCAR-4 ovarian, in the assay with SF-295 CNS, in the assay on UACC-257 melanoma, with SF-268 CNS and in the assay with RPMI-8226 leukemia was > 100 µM each time. In addition, the GI50 in the assay on U251 CNS, with NCI/ADR-RES ovarian, in the assay on SF-539 CNS and in the assay with HOP-92 NSCLC was > 100 µM each time. The TGI in the assay on SN12C renal, with OVCAR-4 ovarian, in the assay with SF-295 CNS, in the assay with UACC-257 melanoma, with SF-268 CNS and with RPMI-8226 leukemia was > 100 µM each time. Moreover, the TGI in the assay on U251 CNS, with NCI/ADR-RES ovarian, in the assay with SF-539 CNS and in the assay on HOP-92 NSCLC was > 100 µM each time.
As for `COc1c2c(nc3ccccc13)-c1cc3c(c(=O)n1C2)COC(=O)C3(O)CC(=O)N1CCOCC1` (stereo unspecified), the TGI is 25.4 µM in the assay with SN12C renal; > 100 µM with OVCAR-4 ovarian; 31.7 µM with SF-295 CNS; 98.4 µM in the assay on UACC-257 melanoma; 26.7 µM in the assay on SF-268 CNS; 82 µM in the assay on RPMI-8226 leukemia. For the same compound, the TGI is 6.92 µM with U251 CNS, > 48.8 µM in the assay on NCI/ADR-RES ovarian, 5.8 µM in the assay on SF-539 CNS and 63.4 µM with HOP-92 NSCLC.
`C[CH2][Sn]([CH2]C)([O]C(=O)C(OC(C)=O)c1ccccc1)[O]C(=O)C(OC(C)=O)c1ccccc1` (stereo unspecified): the GI50 in the assay with SN12C renal is > 100 µM; in the assay on OVCAR-4 ovarian, 50 µM; in the assay with SF-295 CNS it was > 100 µM; with UACC-257 melanoma it was 16.7 µM; in the assay on SF-268 CNS, 16.6 µM; with RPMI-8226 leukemia, 11.2 µM. In addition, the GI50 is 37.6 µM in the assay on U251 CNS, > 100 µM in the assay with NCI/ADR-RES ovarian, 17.5 µM with SF-539 CNS and 18.6 µM with HOP-92 NSCLC. Further, the TGI in the assay with SN12C renal is > 100 µM; in the assay with OVCAR-4 ovarian, > 100 µM; in the assay on SF-295 CNS it was > 100 µM; with UACC-257 melanoma it was 33.4 µM; with SF-268 CNS, 31.8 µM; in the assay with RPMI-8226 leukemia, 36.9 µM. Moreover, the TGI in the assay with U251 CNS was > 100 µM; in the assay on NCI/ADR-RES ovarian it was > 100 µM; in the assay on SF-539 CNS, 33 µM; in the assay on HOP-92 NSCLC it was 34.9 µM.
As to `CCCCN(CCCC)c1ccc(C(=N)c2ccc(N(CCCC)CCCC)cc2)cc1`, the GI50 is 0.35 µM in the assay on SN12C renal; 0.373 µM with OVCAR-4 ovarian; 0.499 µM with SF-295 CNS; 0.561 µM in the assay with UACC-257 melanoma; 0.679 µM in the assay with SF-268 CNS; 0.396 µM in the assay on RPMI-8226 leukemia. For the same compound, the GI50 was 0.351 µM with U251 CNS, 0.479 µM in the assay with NCI/ADR-RES ovarian, 1.49 µM with SF-539 CNS and 0.235 µM in the assay with HOP-92 NSCLC. For the same compound, the TGI in the assay with SN12C renal is 1.44 µM; in the assay on OVCAR-4 ovarian it was 1.4 µM; with SF-295 CNS, 1.79 µM; in the assay on UACC-257 melanoma, 1.63 µM; with SF-268 CNS, 1.93 µM; in the assay on RPMI-8226 leukemia, 1.88 µM. The TGI in the assay on U251 CNS amounted to 1.28 µM; with NCI/ADR-RES ovarian, 1.67 µM; in the assay with SF-539 CNS it was 2.95 µM; in the assay with HOP-92 NSCLC it was 1.46 µM.
Regarding `CCOc1ccccc1N=Nc1c(C)[nH]n(-c2nc(-c3ccccc3)cs2)c1=O`, the GI50 was > 94.8 µM in the assay on SN12C renal; 25 µM in the assay with OVCAR-4 ovarian; 28.3 µM in the assay with SF-295 CNS; 52.5 µM with UACC-257 melanoma; 35.4 µM in the assay with SF-268 CNS; > 100 µM with RPMI-8226 leukemia. Moreover, the GI50 with U251 CNS was 36.2 µM; in the assay on NCI/ADR-RES ovarian, 37.6 µM; in the assay with SF-539 CNS, 27.5 µM; with HOP-92 NSCLC, 21.9 µM. Further, the TGI in the assay on SN12C renal is > 100 µM; in the assay with OVCAR-4 ovarian, > 84.5 µM; in the assay with SF-295 CNS it was > 100 µM; in the assay with UACC-257 melanoma it was > 100 µM; in the assay on SF-268 CNS, > 100 µM; in the assay with RPMI-8226 leukemia, > 100 µM. Besides, the TGI with U251 CNS is > 100 µM; in the assay on NCI/ADR-RES ovarian, > 100 µM; in the assay on SF-539 CNS, > 100 µM; in the assay on HOP-92 NSCLC, > 96.8 µM.
Turning to `CS[C@]12C(=O)C[C@@]3(C)[C@@H](CC[C@]3(O)C(=O)CO)[C@@H]1CCC1=CC(=O)CC[C@@]12C`, the TGI in the assay with SN12C renal, in the assay with OVCAR-4 ovarian, in the assay with SF-295 CNS, in the assay on UACC-257 melanoma, with SF-268 CNS and in the assay on RPMI-8226 leukemia was > 100 µM in each case. For the same compound, the TGI in the assay with U251 CNS, with NCI/ADR-RES ovarian, in the assay with SF-539 CNS and with HOP-92 NSCLC was > 100 µM each time.
On to `COc1ccc(C(=O)c2cc3c(N)c(C(=O)Nc4cccc5ccccc45)sc3nc2C)cc1`, for which the GI50 with SN12C renal is 0.32 µM; in the assay on OVCAR-4 ovarian, 1.15 µM; in the assay on SF-295 CNS it was 0.172 µM; in the assay with UACC-257 melanoma it was > 50 µM; in the assay on SF-268 CNS, 0.529 µM; in the assay on RPMI-8226 leukemia it was 0.184 µM. Besides, the GI50 was 0.194 µM with U251 CNS, 0.181 µM in the assay with NCI/ADR-RES ovarian, 0.126 µM with SF-539 CNS and 0.181 µM with HOP-92 NSCLC. Moreover, the TGI in the assay on SN12C renal, in the assay with OVCAR-4 ovarian, in the assay on SF-295 CNS, in the assay on UACC-257 melanoma, in the assay on SF-268 CNS and with U251 CNS was > 50 µM each time. For the same compound, the TGI is > 50 µM in the assay on NCI/ADR-RES ovarian and > 13.5 µM with HOP-92 NSCLC.
With `Cc1ccc(CNc2c3ccccc3nc3cc(NC(=O)CCN4CCCC4)ccc23)cc1`, the GI50 in the assay on SN12C renal is 0.479 µM; in the assay with OVCAR-4 ovarian, 0.569 µM; with SF-295 CNS it was 1.04 µM; in the assay on UACC-257 melanoma, 1.69 µM; in the assay with SF-268 CNS, 0.819 µM; in the assay with RPMI-8226 leukemia, 0.412 µM. Besides, the GI50 in the assay with U251 CNS is 0.688 µM; in the assay with NCI/ADR-RES ovarian it was 4.02 µM; in the assay on SF-539 CNS it was 0.618 µM; in the assay on HOP-92 NSCLC it was 0.516 µM. Further, the TGI with SN12C renal is 1.74 µM; with OVCAR-4 ovarian, 2.02 µM; with SF-295 CNS, 2.35 µM; with UACC-257 melanoma, 3.27 µM; with SF-268 CNS, 2.31 µM; in the assay with RPMI-8226 leukemia, 1.94 µM. The TGI in the assay with U251 CNS worked out at 2.05 µM; with NCI/ADR-RES ovarian, 24.2 µM; in the assay on SF-539 CNS, 1.9 µM; in the assay on HOP-92 NSCLC it was 2.13 µM.
Consider `CC1(C)[C@@H](OC(N)=O)[C@H]2O[C@H]2[C@]2(CO)[C@H]3CC[C@]4(C)[C@@H](c5ccc(=O)oc5)[C@@H](Cl)C[C@]4(O)C3=CC[C@@H]12`, for which the GI50 in the assay with SN12C renal was 0.00766 µM; in the assay on OVCAR-4 ovarian, 0.00545 µM; in the assay with SF-295 CNS, 0.0072 µM; in the assay with UACC-257 melanoma, 0.012 µM; in the assay on SF-268 CNS, 0.00457 µM; in the assay on RPMI-8226 leukemia, < 0.011 µM. Further, the GI50 is 0.00858 µM in the assay with U251 CNS, 0.00672 µM in the assay on NCI/ADR-RES ovarian, 0.00453 µM in the assay on SF-539 CNS and 0.0127 µM in the assay with HOP-92 NSCLC. For the same compound, the TGI came to 0.0325 µM in the assay on SN12C renal; 0.0157 µM with OVCAR-4 ovarian; 0.0264 µM in the assay with SF-295 CNS; 0.045 µM in the assay on UACC-257 melanoma; 0.00892 µM in the assay on SF-268 CNS; 0.126 µM with RPMI-8226 leukemia. Further, the TGI in the assay with U251 CNS was determined as 0.0297 µM; in the assay with NCI/ADR-RES ovarian, 0.0174 µM; with SF-539 CNS, 0.00951 µM; in the assay with HOP-92 NSCLC, 0.0921 µM.
Regarding `C=C1C(=O)OC2/C=C(/C)C(OC(C)=O)CC(O)/C(C)=C\C(OC(=O)/C(C)=C\C)C12` (stereo unspecified), the TGI with SN12C renal, with OVCAR-4 ovarian, in the assay with SF-295 CNS, in the assay with UACC-257 melanoma, in the assay on SF-268 CNS and with RPMI-8226 leukemia was > 100 µM in each case. For the same compound, the TGI in the assay on U251 CNS, in the assay with NCI/ADR-RES ovarian, in the assay on SF-539 CNS and in the assay on HOP-92 NSCLC was > 100 µM each time.
`NC(=S)N/N=C/c1ncccc1N`: the GI50 is 0.789 µM in the assay with SN12C renal; 3.57 µM in the assay on OVCAR-4 ovarian; 0.654 µM in the assay with SF-295 CNS; 0.731 µM in the assay on SF-268 CNS; 1.45 µM in the assay with RPMI-8226 leukemia; 0.659 µM in the assay on U251 CNS. Also, the GI50 with NCI/ADR-RES ovarian is 1.66 µM; with HOP-92 NSCLC it was > 87.2 µM. Besides, the TGI is 16.5 µM and > 10 µM in the assay with SN12C renal; > 50 µM in the assay with OVCAR-4 ovarian; 10.7 µM and 5.07 µM with SF-295 CNS; > 80.7 µM in the assay on UACC-257 melanoma; 51.9 µM and > 8.29 µM in the assay with SF-268 CNS; > 100 µM with RPMI-8226 leukemia. The TGI with U251 CNS is > 100 µM; in the assay with NCI/ADR-RES ovarian, 14.9 µM and 8.77 µM; with SF-539 CNS it was 1.23 µM and 0.673 µM; in the assay on HOP-92 NSCLC, > 100 µM.
